Consider 18 compounds from ChEMBL document CHEMBL4477250, “Discovery of novel potent imidazo[1,2-b]pyridazine PDE10a inhibitors” (Bioorg Med Chem Lett, 2016).

Molecules are shown by their SMILES. Calls of active or inactive are those of the source. No cut-off for these calls is given here.

In general, IC50 refers to the concentration needed to halve the response being measured. Usually bioavailability stands for dose-corrected exposure relative to a reference, in per cent. The term clearance denotes a measure of how efficiently the substance is removed, as volume per time. As a reminder, the half-life is how long it takes for the measured level to halve. What is called Cmax is the maximum level reached in the sampled fluid or tissue.

For data set [1], the target named is cAMP and cAMP-inhibited cGMP 3',5'-cyclic phosphodiesterase 10A (Homo sapiens, UniProt Q9Y233). As to the kind of experiment: Inhibition of human recombinant full length PDE10A expressed in sf9 cells by scintillation proximity assay. (Scintillation proximity formats need no separation of bound from free tracer.)
Data set [2] has as its target Dual specificity calcium/calmodulin-dependent 3',5'-cyclic nucleotide phosphodiesterase 1B (Homo sapiens, UniProt Q01064). Put plainly: Inhibition of human PDE1B.
The target in data set [3] is cGMP-dependent 3',5'-cyclic phosphodiesterase (Homo sapiens, UniProt O00408). As to the kind of experiment: Inhibition of human PDE2A.
Data set [4] deals with cGMP-inhibited 3',5'-cyclic phosphodiesterase 3B (Homo sapiens, UniProt Q13370). Put plainly: Inhibition of human PDE3B.
In data set [5] the target is 3',5'-cyclic-AMP phosphodiesterase 4D (Homo sapiens, UniProt Q08499). Put plainly: Inhibition of human PDE4D.
Data set [6] concerns the target cGMP-specific 3',5'-cyclic phosphodiesterase (Homo sapiens, UniProt O76074). Put plainly: Inhibition of human PDE5A.
For data set [7], the target named is High affinity 3',5'-cyclic-AMP phosphodiesterase 7A (Homo sapiens, UniProt Q13946). As to the kind of experiment: Inhibition of human PDE7A.
Data set [8] deals with High affinity cGMP-specific 3',5'-cyclic phosphodiesterase 9A (Homo sapiens, UniProt O76083). As to the kind of experiment: Inhibition of human PDE9A.
The target in data set [9] is 3',5'-cyclic phosphodiesterase. As to the kind of experiment: Inhibition of human PDE. Format: protein assay.
Data set [10] is filed under the species Homo sapiens. As to the kind of experiment: Selectivity ratio of IC50 for human PDE1B to IC50 for human recombinant full length PDE10A expressed in sf9 cells.
The species named for data set [11] is Homo sapiens. As to the kind of experiment: Selectivity ratio of IC50 for human PDE2A to IC50 for human recombinant full length PDE10A expressed in sf9 cells.
For data set [12], the species on record is Homo sapiens. Put plainly: Selectivity ratio of IC50 for human PDE3B to IC50 for human recombinant full length PDE10A expressed in sf9 cells.
For data set [13], the species on record is Homo sapiens. Put plainly: Selectivity ratio of IC50 for human PDE4D to IC50 for human recombinant full length PDE10A expressed in sf9 cells.
Data set [14] is filed under the species Homo sapiens. As to the kind of experiment: Selectivity ratio of IC50 for human PDE5A to IC50 for human recombinant full length PDE10A expressed in sf9 cells.
The species entered for data set [15] is Homo sapiens. Put plainly: Selectivity ratio of IC50 for human PDE7A to IC50 for human recombinant full length PDE10A expressed in sf9 cells.
The species named for data set [16] is Homo sapiens. Put plainly: Selectivity ratio of IC50 for human PDE9A to IC50 for human recombinant full length PDE10A expressed in sf9 cells.
Data set [17] concerns the target Cytochrome P450 3A4 (Homo sapiens, UniProt P08684). Put plainly: Inhibition of recombinant CYP3A4 (unknown origin). It counts as ADME.
Data set [18] addresses Cytochrome P450 2C9 (Homo sapiens, UniProt P11712). As to the kind of experiment: Inhibition of recombinant CYP2C9 (unknown origin). Format: ADME.
In data set [19] the target is Cytochrome P450 2C19 (Homo sapiens, UniProt P33261). Put plainly: Inhibition of recombinant CYP2C19 (unknown origin). It counts as ADME.
Data set [20] addresses Cytochrome P450 2D6 (Homo sapiens, UniProt P10635). As to the kind of experiment: Inhibition of recombinant CYP2D6 (unknown origin). It counts as ADME.
Data set [21] addresses T1, Cytochrome P450 1A2 (Homo sapiens, UniProt P05177).
T1 sequence (P05177 whole entry): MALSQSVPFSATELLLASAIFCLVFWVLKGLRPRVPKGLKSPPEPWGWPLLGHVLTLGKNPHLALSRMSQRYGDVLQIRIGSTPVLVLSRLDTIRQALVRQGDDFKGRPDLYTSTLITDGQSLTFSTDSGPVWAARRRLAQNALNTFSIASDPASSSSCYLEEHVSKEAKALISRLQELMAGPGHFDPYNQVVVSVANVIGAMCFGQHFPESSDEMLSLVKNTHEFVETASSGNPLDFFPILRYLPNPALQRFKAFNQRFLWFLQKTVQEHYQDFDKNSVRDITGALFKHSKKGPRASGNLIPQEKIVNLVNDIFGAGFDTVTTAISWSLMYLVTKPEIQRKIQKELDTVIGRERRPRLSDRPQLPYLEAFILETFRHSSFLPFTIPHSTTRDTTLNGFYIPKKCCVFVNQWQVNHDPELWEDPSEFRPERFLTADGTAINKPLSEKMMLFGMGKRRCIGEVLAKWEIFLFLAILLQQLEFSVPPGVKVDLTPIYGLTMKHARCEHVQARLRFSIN
As to the kind of experiment: Inhibition of recombinant CYP1A2 (unknown origin). It counts as ADME.

The nature of data set [22]: Stability in human liver microsomes. It counts as ADME, Microsome.
The nature of data set [23]: Stability in rat liver microsomes. It counts as ADME, Microsome. On the technique in general: Liver microsomes are vesicles of endoplasmic reticulum, rich in cytochrome P450 enzymes.
Data set [24] can be described thus: Stability in dog liver microsomes. Format: ADME, Canis lupus familiaris, Microsome.
A short description of data set [25]: Stability in mouse liver microsomes. Format: ADME, Microsome.
Data set [26] in a line: Oral bioavailability in rat at 10 mg/kg. It counts as ADME, organism-based. As to conditions: in vivo.
The nature of data set [27]: Cardiotoxicity in anesthetized guinea pig. It counts as toxicity, Cavia porcellus.
Data set [28] has as its target Voltage-gated inwardly rectifying potassium channel KCNH2 (Homo sapiens, UniProt Q12809). As to the kind of experiment: Inhibition of human ERG.
Data set [29] can be described thus: Stability in cynomolgus monkey liver microsomes. It counts as ADME, Macaca fascicularis, Microsome.
A short description of data set [30]: Clearance in rat at 10 mg/kg. It counts as ADME, organism-based. The settings on record: in vivo.
Data set [31] in a line: Half life in rat at 10 mg/kg, iv. It counts as ADME, organism-based. As to conditions: in vivo.
The nature of data set [32]: Cmax in rat at 10 mg/kg. Format: ADME, organism-based. Also noted: dose 10 mg/kg. As to conditions: in vivo.
Data set [33] is described as follows: Volume of distribution in steady state in rat at 10 mg/kg. It counts as ADME, organism-based. The settings on record: in vivo, read-out: Vdss.
Data set [34] is filed under the species Rattus norvegicus. Put plainly: Induction of insulin secretion in rat pancreatic islets at 0.1 to 3 uM in presence of 3 mM glucose. Format: functional.
Data set [35] is filed under the species Rattus norvegicus. Put plainly: Induction of insulin secretion in rat pancreatic islets at 0.1 to 3 uM in presence of 12 mM glucose. Format: functional.
For data set [36], the system named is Pancreatic islet. As to the kind of experiment: Induction of insulin secretion in human pancreatic islets at 1 uM in presence of glucose. It counts as functional, cell-based.
Data set [37] has as its system Rattus norvegicus. Put plainly: Antidiabetic activity in fasted Sprague-Dawley rat assessed as reduction in blood glucose level at 3 to 30 mg/kg, po administered 3 hrs prior to glucose challenge measured up to 2 hrs by OGTT. It counts as functional, organism-based.
For data set [38], the system named is Mus musculus. Put plainly: Antidiabetic activity in ob/ob mouse assessed as reduction in blood glucose level at 5 to 20 mg/kg, po administered 3 hrs prior to glucose challenge measured up to 2 hrs by OGTT. It counts as functional, organism-based.
Data set [39] can be described thus: Ratio of drug level in brain to plasma (unknown origin) after 2 hrs. The settings on record: brain and plasma; read-out: BPR. It counts as ADME.
The subject of data set [40] is Pancreatic islet. Put plainly: Induction of insulin secretion in human pancreatic islets at 2 to 12 mM. Format: functional, cell-based.
Data set [41] relates to Pancreatic islet. As to the kind of experiment: Induction of insulin secretion in human pancreatic islets at 30 mM in presence of glucose. Format: functional, cell-based.
In data set [42] the test system is Pancreatic islet. As to the kind of experiment: Induction of insulin secretion in human pancreatic islets at 15 mM in presence of glucose. Format: functional, cell-based.

cAMP and cAMP-inhibited cGMP 3',5'-cyclic phosphodiesterase 10A, sequence (Q9Y233 whole entry): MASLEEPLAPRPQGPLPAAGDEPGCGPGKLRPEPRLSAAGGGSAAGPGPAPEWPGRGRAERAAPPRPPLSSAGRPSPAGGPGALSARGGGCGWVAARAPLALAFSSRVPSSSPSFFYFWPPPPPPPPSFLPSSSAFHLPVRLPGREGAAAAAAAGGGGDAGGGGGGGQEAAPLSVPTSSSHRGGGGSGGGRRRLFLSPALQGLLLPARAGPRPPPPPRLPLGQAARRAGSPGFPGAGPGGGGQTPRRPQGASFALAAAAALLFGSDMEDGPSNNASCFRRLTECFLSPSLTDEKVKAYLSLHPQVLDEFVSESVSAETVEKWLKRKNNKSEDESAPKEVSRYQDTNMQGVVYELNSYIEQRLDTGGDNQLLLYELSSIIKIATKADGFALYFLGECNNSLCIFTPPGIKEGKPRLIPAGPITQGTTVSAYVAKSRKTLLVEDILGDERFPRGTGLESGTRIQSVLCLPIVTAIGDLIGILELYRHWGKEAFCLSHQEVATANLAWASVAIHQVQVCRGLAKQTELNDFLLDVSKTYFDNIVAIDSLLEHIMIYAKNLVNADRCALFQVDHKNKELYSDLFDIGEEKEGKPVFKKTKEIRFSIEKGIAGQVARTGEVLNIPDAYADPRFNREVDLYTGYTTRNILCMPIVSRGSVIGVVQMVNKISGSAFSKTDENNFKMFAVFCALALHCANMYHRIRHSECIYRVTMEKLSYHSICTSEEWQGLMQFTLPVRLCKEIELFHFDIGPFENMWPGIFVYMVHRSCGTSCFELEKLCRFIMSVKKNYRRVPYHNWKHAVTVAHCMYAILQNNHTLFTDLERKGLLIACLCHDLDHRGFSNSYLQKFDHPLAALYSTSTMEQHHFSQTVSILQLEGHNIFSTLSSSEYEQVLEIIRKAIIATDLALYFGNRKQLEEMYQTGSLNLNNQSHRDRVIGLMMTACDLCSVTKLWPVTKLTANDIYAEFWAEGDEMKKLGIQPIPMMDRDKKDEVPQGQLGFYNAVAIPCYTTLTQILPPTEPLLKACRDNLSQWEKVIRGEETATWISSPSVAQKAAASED
cGMP-inhibited 3',5'-cyclic phosphodiesterase 3B, sequence (Q13370 whole entry): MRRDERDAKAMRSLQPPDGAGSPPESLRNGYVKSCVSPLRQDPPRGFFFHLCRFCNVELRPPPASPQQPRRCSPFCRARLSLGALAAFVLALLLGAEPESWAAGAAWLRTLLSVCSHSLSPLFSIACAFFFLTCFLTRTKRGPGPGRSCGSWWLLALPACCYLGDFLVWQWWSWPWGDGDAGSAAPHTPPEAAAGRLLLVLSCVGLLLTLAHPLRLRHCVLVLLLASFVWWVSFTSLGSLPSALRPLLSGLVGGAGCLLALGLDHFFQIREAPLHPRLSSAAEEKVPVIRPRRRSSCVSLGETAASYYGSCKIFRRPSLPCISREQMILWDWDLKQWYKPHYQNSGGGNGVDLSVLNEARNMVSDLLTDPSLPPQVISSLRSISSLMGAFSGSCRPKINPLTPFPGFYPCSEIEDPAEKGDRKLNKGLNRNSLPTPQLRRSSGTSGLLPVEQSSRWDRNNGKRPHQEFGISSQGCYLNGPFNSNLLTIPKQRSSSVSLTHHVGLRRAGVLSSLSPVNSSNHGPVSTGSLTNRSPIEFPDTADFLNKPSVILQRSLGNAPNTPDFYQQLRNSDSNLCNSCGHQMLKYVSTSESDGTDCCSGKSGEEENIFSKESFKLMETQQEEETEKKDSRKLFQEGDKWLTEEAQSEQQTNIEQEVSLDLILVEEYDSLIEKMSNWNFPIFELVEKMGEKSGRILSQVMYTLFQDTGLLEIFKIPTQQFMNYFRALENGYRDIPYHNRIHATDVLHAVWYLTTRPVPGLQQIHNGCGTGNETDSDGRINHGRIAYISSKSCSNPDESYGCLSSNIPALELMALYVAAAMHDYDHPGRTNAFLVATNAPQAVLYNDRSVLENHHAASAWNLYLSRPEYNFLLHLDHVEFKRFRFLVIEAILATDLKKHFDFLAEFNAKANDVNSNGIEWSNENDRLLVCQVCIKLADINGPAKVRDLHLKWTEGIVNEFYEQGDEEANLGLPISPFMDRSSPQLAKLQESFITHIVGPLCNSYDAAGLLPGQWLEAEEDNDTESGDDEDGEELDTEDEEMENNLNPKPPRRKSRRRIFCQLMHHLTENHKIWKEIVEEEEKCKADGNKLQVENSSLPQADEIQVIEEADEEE
Cytochrome P450 2C9, sequence (P11712 whole entry): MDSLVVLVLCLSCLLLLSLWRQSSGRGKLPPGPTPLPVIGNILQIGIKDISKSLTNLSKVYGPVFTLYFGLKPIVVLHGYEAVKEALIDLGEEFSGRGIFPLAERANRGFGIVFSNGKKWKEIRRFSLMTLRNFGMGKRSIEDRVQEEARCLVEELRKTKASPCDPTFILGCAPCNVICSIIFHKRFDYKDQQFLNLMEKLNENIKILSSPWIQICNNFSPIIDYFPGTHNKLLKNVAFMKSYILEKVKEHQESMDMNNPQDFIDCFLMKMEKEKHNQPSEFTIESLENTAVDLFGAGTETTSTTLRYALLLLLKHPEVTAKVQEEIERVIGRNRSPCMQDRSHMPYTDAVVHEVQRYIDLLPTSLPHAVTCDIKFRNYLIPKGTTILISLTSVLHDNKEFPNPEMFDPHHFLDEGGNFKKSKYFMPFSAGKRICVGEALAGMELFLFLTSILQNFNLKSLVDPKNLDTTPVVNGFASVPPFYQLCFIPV
Cytochrome P450 3A4, sequence (P08684 whole entry): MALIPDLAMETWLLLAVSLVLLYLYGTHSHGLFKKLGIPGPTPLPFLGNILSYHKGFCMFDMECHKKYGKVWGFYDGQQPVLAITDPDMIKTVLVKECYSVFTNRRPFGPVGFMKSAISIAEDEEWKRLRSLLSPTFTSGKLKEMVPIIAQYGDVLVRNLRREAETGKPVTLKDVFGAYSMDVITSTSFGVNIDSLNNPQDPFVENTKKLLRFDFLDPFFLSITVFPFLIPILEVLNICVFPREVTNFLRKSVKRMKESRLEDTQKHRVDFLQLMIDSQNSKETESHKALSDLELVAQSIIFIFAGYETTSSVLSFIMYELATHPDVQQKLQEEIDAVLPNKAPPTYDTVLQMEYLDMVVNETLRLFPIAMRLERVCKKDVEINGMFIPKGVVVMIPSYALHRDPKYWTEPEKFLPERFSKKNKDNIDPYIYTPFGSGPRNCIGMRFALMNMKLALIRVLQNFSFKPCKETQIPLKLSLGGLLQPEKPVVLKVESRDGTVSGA
Cytochrome P450 2C19, sequence (P33261 whole entry): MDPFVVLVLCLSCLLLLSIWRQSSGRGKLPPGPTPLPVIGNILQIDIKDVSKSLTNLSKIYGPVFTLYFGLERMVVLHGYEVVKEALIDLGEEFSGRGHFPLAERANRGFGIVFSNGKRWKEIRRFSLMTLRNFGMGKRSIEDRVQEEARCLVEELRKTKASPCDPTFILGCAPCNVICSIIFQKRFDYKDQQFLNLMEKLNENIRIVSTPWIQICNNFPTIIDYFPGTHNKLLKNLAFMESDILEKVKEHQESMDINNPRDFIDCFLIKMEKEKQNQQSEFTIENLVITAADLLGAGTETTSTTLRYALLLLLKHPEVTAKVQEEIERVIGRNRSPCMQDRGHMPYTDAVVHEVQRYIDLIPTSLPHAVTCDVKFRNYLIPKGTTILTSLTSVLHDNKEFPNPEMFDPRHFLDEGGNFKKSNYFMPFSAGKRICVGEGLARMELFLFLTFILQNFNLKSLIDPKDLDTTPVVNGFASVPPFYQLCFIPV
Cytochrome P450 2D6, sequence (P10635 whole entry): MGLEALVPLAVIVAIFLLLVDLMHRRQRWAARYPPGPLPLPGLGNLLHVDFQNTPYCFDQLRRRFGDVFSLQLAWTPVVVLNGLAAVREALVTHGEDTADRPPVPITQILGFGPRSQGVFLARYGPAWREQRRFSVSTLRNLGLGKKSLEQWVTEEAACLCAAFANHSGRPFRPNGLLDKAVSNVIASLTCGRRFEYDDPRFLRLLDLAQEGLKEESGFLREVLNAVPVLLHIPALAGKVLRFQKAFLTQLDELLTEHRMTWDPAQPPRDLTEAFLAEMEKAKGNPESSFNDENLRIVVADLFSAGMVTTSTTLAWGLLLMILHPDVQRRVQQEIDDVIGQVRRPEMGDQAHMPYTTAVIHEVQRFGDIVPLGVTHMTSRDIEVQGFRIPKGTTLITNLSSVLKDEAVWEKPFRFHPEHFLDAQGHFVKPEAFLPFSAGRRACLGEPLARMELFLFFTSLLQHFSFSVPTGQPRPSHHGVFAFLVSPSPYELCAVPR
3',5'-cyclic-AMP phosphodiesterase 4D, sequence (Q08499 whole entry): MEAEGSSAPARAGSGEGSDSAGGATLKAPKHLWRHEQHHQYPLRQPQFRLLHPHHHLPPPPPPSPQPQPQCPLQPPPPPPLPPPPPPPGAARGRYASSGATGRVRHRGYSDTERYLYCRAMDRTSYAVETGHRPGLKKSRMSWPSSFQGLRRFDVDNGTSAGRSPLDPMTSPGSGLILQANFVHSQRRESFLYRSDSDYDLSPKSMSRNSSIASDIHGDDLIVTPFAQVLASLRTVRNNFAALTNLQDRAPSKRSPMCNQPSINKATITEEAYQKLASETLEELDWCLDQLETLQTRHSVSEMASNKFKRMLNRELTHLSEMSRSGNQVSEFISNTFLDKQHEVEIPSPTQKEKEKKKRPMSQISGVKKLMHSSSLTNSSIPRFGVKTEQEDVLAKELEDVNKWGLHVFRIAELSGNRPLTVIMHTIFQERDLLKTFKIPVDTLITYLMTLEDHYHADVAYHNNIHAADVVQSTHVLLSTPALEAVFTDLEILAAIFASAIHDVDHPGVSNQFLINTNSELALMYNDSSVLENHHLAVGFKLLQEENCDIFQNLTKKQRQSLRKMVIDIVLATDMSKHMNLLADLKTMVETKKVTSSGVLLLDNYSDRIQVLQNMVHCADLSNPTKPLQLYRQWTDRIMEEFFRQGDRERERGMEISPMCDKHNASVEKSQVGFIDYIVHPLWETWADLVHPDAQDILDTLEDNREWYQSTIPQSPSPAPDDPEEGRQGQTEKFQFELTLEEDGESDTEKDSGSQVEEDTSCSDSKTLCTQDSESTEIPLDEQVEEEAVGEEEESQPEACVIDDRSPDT

For `O=C(O)c1ccc(-c2c(/C=C/c3ccc4ccccc4n3)nc3c(N4CCOCC4)ccnn23)cc1`, the IC50 in [1] is 1.5 to 2 nM; in data set [2], 6600 nM; in [3], 5900 nM; in data set [4], 6600 nM; in data set [5] it was 4000 nM; in data set [6] it was 5400 nM. Besides, the half-maximal inhibitory concentration (IC50) in data set [7] was 4200 nM; in data set [8] it was > 10000 nM; in data set [9] it was 3000 nM; in data set [17] it was > 10000 nM; in data set [18], > 10000 nM; in data set [19] it was > 10000 nM. Besides, the IC50 in [20] and in [21] was > 10000 nM each time. Also, the Ratio IC50 in [10], in [11], in data set [12], in [13], in [14] and in data set [15] was 200 throughout. The Ratio IC50 in data set [16] worked out at 200. In addition, the Stability entry in data set [22], in [23], in [24], in data set [25] and in [29] was “Stable” each time. The compound further registered a bioavailability in [26] of 44%. In addition, in [27], the Activity result is given as “Non-Toxic”. For the same compound, the “inhibition (INH)” value in data set [28] was “Not Active”. In data set [30], this compound had a clearance of 3.3 mL/min/kg. This compound came in with a half-life in data set [31] of 6 to 6.1 h. This compound also returned a Cmax in data set [32] of 2990 ng/mL. The Vd in data set [33] turned out to be 0.47 L/kg. Also, the result in data set [34], in data set [35], in data set [37] and in data set [38] was inactive. Also, the outcome in [36] was Active.
As to `c1ccc2nc(Cc3nc4c(N5CCOCC5)ccnn4c3-c3ccc(N4CCNCC4)nc3)ccc2c1`, the IC50 in data set [1] was 123 nM. The Kp at 2 h in data set [39] came to 0.45.
Consider `O=C(O)CCc1ccc(-c2c([C@H]3C[C@H](c4ccc5ccccc5n4)C3)nc3c(N4CCOCC4)ccnn23)cc1`, for which, in data set [1], the IC50 came out at 2.4 nM.
For the compound `O=C(O)c1ccc(-c2c(CCc3ccc4ccccc4n3)nc3c(N4CCOCC4)ccnn23)cc1`, the concentration for half-maximal inhibition (IC50) in data set [1] turned out to be 1.2 nM.
Turning to `O=C(O)C1CCN(c2ccc(-c3c([C@H]4C[C@H](c5ccc6ccccc6n5)C4)nc4c(N5CCOCC5)ccnn34)cc2)CC1`, the IC50 in data set [1] is 3.2 nM. Moreover, in data set [39], the Kp at 2 h was found to be 0.02.
Take `c1ccc2nc(SCc3nc4c(N5CCOCC5)ccnn4c3-c3ccc(N4CCNCC4)nc3)ccc2c1`: the Kp at 2 h in data set [39] turned out to be 0.82.
As for `CC(=O)NS(=O)(=O)c1ccc(-c2c(/C=C/c3ccc4ccccc4n3)nc3c(N4CCOCC4)ccnn23)cc1`, the IC50 in [1] was 2.2 nM.
Same read-out and setting: to `Oc1ncn(-c2ccc(-c3c(/C=C/c4ccc5ccccc5n4)nc4c(N5CCOCC5)ccnn34)cc2)n1` belongs 7.4 nM; to `O=C(O)c1ccc(-c2c([C@H]3C[C@H](c4ccc5ccccc5n4)C3)nc3c(N4CCOCC4)ccnn23)cc1`, 0.6 nM.
In the case of `OC[C@H]1OC(O)[C@H](O)[C@@H](O)[C@@H]1O` (stereo partly specified), in [40], the result was Active.
On to `O=c1[nH]c(-c2ccc(-c3c(/C=C/c4ccc5ccccc5n4)nc4c(N5CCOCC5)ccnn34)cc2)no1`, for which the concentration for half-maximal inhibition (IC50) in [1] was found to be 3.3 nM.
For the compound `[Cl-].[K+]`, the outcome in data set [41] was Active.
`N=C(N)NCCC[C@H](N)C(=O)O`: the result in data set [42] was Active.
`COc1ccc(Cl)cc1C(=O)NCCc1ccc(S(=O)(=O)NC(=O)NC2CCCCC2)cc1`: in data set [36], the result was Active.
On to `NS(=O)(=O)N1CCN(c2c(CSc3ccc4ccccc4n3)nc3c(N4CCOCC4)ccnn23)CC1`, for which the IC50 in data set [1] was 13.8 nM. The Kp at 2 h in data set [39] was 0.31.
For the compound `O=C(O)C1CCN(c2ccc(-c3c(/C=C/c4ccc5ccccc5n4)nc4c(N5CCOCC5)ccnn34)cc2)CC1`, the IC50 in data set [1] was 4.4 nM. Besides, the Kp at 2 h in [39] worked out at 0.02.
In the case of `Oc1nc(O)c(-c2ccc(-c3c(/C=C/c4ccc5ccccc5n4)nc4c(N5CCOCC5)ccnn34)cc2)o1`, the IC50 in data set [1] is 8.5 nM. For the same compound, the Kp at 2 h in [39] stood at 0.01.
As to `CS(=O)(=O)NC(=O)c1ccc(-c2c(C#Cc3ccc4ccccc4n3)nc3c(N4CCOCC4)ccnn23)cn1`, in data set [1], the IC50 was 2.1 nM. For the same compound, the Kp at 2 h in data set [39] was 0.01.
